Test results published in US12486269B2 (Aconcagua Bio, Inc., priority 2024, dated 2025).

Experiments:
[1] = target: T1, human calcitonin receptor (CTR) (Homo sapiens, UniProt P30988); assay: Calcitonin Receptor (CTR) cAMP Assay; format: cell-based; details: COS7-human CTR Clone #2 stable cell line, cAMP dynamic 2 kit, 30 min; read-out: Calcitonin Receptor cAMP Stimulation Activity: EC50
T1 construct: expressed in transfected cells; host or cells: COS-7 (COS7-human CTR Clone #2)
T1 sequence (P30988 25-474): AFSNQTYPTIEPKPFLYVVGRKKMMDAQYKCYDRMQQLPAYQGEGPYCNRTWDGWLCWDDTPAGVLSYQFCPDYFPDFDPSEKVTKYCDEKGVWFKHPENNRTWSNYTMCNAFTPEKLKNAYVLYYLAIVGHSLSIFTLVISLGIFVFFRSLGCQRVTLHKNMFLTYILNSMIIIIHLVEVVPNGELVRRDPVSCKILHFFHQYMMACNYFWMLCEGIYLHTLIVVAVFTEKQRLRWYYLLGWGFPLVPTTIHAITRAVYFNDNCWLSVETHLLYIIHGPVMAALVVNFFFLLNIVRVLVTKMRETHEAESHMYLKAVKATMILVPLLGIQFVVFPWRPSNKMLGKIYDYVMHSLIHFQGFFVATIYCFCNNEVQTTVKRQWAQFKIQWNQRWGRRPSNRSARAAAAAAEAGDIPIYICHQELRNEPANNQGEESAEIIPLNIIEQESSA
Outline: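 cAMP accumulation was measured by HTRF cAMP dynamic 2 read at 665/615 nm, 1 h at room temperature, with results scaled between vehicle and positive control. Before detection, COS7-human CTR stable cells were stimulated 30 min at 37 °C with compound (4-fold dilutions) in IBMX-containing HBSS/HEPES/casein buffer.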

[2] = target: T2, COS-7/AMY3 (human calcitonin receptor (CTR) and RAMP3) (Homo sapiens, UniProt O60896+P30988); assay: Amylin Receptor cAMP Assay II; format: cell-based; details: values marked **: Amylin Receptor cAMP Assay II; COS-7/AMY3 cells, cAMP dynamic 2 kit, 30 min; read-out: Amylin Receptor cAMP Stimulation Activity: EC50
T2 construct: expressed in transfected cells; host or cells: COS-7
Outline: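 Agonist-induced cAMP was quantified by HTRF ratio at 665/615 nm and expressed as % of the window from vehicle to MAX control. Stimulation lasted 30 min at 37 °C in HBSS/20 mM HEPES/0.5 mM IBMX/0.1% casein, using stable human CTR+RAMP3 (AMY3) COS-7 cells at 2000 per well.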

T2 sequence (O60896 24-148, one chain of several): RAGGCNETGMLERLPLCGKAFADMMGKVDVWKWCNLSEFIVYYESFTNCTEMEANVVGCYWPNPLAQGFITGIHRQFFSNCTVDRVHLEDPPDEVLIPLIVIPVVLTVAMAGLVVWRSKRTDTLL

Structure (SMILES)	EC50 [1] [nM]	EC50 [2] [nM]
O=C1c2c(nc(CCc3ccc(F)cc3)c(-c3n[nH]c(=O)o3)c2-c2cc3ccnc(N[C@@H]4CCOc5c(F)cc(F)cc54)c3s2)[C@@H]2CCCN12 [Compound 259, 5-((S)-4-(7-(((R)-6,8-difluorochroman-4-yl)amino)thieno[2,3-c]pyridin-2-yl)-2-(4-fluorophenethyl)-5-oxo-7,8,9,9a-tetrahydro-5H-pyrido[2,3-a]pyrrolizin-3-yl)-1,3,4-oxadiazol-2(3H)-one]	0.152	1.52
COc1c(F)ccc2c1C[C@@H](F)[C@H]2Nc1nccc2cc(-c3c4c(nc(CCc5ccc(F)cc5)c3-c3n[nH]c(=O)o3)[C@@H]3CCCN3C4=O)sc12 [Compound 260, 5-((S)-4-(7-(((1S,2R)-2,5-difluoro-4-methoxy-2,3-dihydro-1H-inden-1-yl)amino)thieno[2,3-c]pyridin-2-yl)-2-(4-fluorophenethyl)-5-oxo-7,8,9,9a-tetrahydro-5H-pyrido[2,3-a]pyrrolizin-3-yl)-1,3,4-oxadiazol-2(3H)-one]	0.0529	1.24
COc1c(F)ccc2c1C[C@H](F)[C@H]2Nc1nccc2cc(-c3c4c(nc(CCc5ccc(F)cc5)c3-c3n[nH]c(=O)o3)[C@@H]3CCCN3C4=O)sc12 [Compound 261, 5-((S)-4-(7-(((1S,2S)-2,5-difluoro-4-methoxy-2,3-dihydro-1H-inden-1-yl)amino)thieno[2,3-c]pyridin-2-yl)-2-(4-fluorophenethyl)-5-oxo-7,8,9,9a-tetrahydro-5H-pyrido[2,3-a]pyrrolizin-3-yl)-1,3,4-oxadiazol-2(3H)-one]	0.807	6.35
COc1c(F)ccc2c1CC[C@H]2Nc1nccc2cc(-c3c4c(nc(CCc5ccc(F)cc5)c3-c3n[nH]c(=O)o3)[C@@H]3COCCN3C4=O)sc12 [Compound 262, (R)-4-(7-(((R)-5-fluoro-4-methoxy-2,3-dihydro-1H-inden-1-yl)amino)thieno[2,3-c]pyridin-2-yl)-2-(4-fluorophenethyl)-3-(5-oxo-4,5-dihydro-1,3,4-oxadiazol-2-yl)-7,8,10,10a-tetrahydro-5H-pyrido[2′,3′:3,4]pyrrolo[2,1-c][1,4]oxazin-5-one]	0.0963	2.81
COc1c(F)ccc2c1CC[C@H]2Nc1nc(C)cc2cc(-c3c4c(nc(CCc5ccc(F)cc5)c3-c3n[nH]c(=O)o3)[C@@H]3COCCN3C4=O)sc12 [Compound 263, (R)-4-(7-(((R)-5-fluoro-4-methoxy-2,3-dihydro-1H-inden-1-yl)amino)-5-methylthieno[2,3-c]pyridin-2-yl)-2-(4-fluorophenethyl)-3-(5-oxo-4,5-dihydro-1,3,4-oxadiazol-2-yl)-7,8,10,10a-tetrahydro-5H-pyrido[2′,3′:3,4]pyrrolo[2,1-c][1,4]oxazin-5-one]	0.0341	0.629
COc1nccc2c1CC[C@H]2Nc1nccc2cc(-c3c4c(nc(CCc5ccc(F)cc5)c3-c3n[nH]c(=O)o3)C35CC(CN3C4=O)C5)sc12 [Compound 264, (R)-5-(2-(4-fluorophenethyl)-4-(7-((1-methoxy-6,7-dihydro-5H-cyclopenta[c]pyridin-5-yl)amino)thieno[2,3-c]pyridin-2-yl)-5-oxo-8,9-dihydro-5H,7H-8,9a-methanopyrido[2,3-a]pyrrolizin-3-yl)-1,3,4-oxadiazol-2(3H)-one]	0.247	7.4
Cc1cc2cc(-c3c4c(nc(CCc5ccc(F)cc5)c3-c3n[nH]c(=O)o3)C35CC(CN3C4=O)C5)sc2c(N[C@@H]2CCc3c(Cl)cncc32)n1 [Compound 265, (R)-5-(4-(7-((4-chloro-6,7-dihydro-5H-cyclopenta[c]pyridin-7-yl)amino)-5-methylthieno[2,3-c]pyridin-2-yl)-2-(4-fluorophenethyl)-5-oxo-8,9-dihydro-5H,7H-8,9a-methanopyrido[2,3-a]pyrrolizin-3-yl)-1,3,4-oxadiazol-2(3H)-one]	0.174	7.34
O=C1c2c(nc(CCc3ccc(F)cc3)c(-c3n[nH]c(=O)o3)c2-c2cc3ccnc(N[C@@H]4CCc5cc(Cl)cnc54)c3s2)C23CC(CN12)C3 [Compound 266, (R)-5-(4-(7-((3-chloro-6,7-dihydro-5H-cyclopenta[b]pyridin-7-yl)amino)thieno[2,3-c]pyridin-2-yl)-2-(4-fluorophenethyl)-5-oxo-8,9-dihydro-5H,7H-8,9a-methanopyrido[2,3-a]pyrrolizin-3-yl)-1,3,4-oxadiazol-2(3H)-one]	2.75	182
COc1c(F)ccc2c1CC[C@H]2Nc1cccc2nc(-c3c4c(nc(CCc5ccc(F)cc5)c3-c3n[nH]c(=O)o3)C35CC(CN3C4=O)C5)sc12 [Compound 267, (R)-5-(4-(7-((5-fluoro-4-methoxy-2,3-dihydro-1H-inden-1-yl)amino)benzo[d]thiazol-2-yl)-2-(4-fluorophenethyl)-5-oxo-8,9-dihydro-5H,7H-8,9a-methanopyrido[2,3-a]pyrrolizin-3-yl)-1,3,4-oxadiazol-2(3H)-one]	0.738	14.6
COc1c(F)ccc2c1CC[C@H]2Nc1ncnc2cc(-c3c4c(nc(CCc5ccc(F)cc5)c3-c3n[nH]c(=O)o3)C35CC(CN3C4=O)C5)sc12 [Compound 268, (R)-5-(4-(4-((5-fluoro-4-methoxy-2,3-dihydro-1H-inden-1-yl)amino)thieno[3,2-d]pyrimidin-6-yl)-2-(4-fluorophenethyl)-5-oxo-8,9-dihydro-5H,7H-8,9a-methanopyrido[2,3-a]pyrrolizin-3-yl)-1,3,4-oxadiazol-2(3H)-one]	0.077	1.07
COc1c(F)ccc2c1CC[C@H]2Nc1nccc2sc(-c3c4c(nc(CCc5ccc(F)cc5)c3-c3n[nH]c(=O)o3)C35CC(CN3C4=O)C5)cc12 [Compound 269, (R)-5-(4-(4-((5-fluoro-4-methoxy-2,3-dihydro-1H-inden-1-yl)amino)thieno[3,2-c]pyridin-2-yl)-2-(4-fluorophenethyl)-5-oxo-8,9-dihydro-5H,7H-8,9a-methanopyrido[2,3-a]pyrrolizin-3-yl)-1,3,4-oxadiazol-2(3H)-one]	0.0975	1.78
COc1c(F)ccc2c1CC[C@H]2Nc1ncnc2sc(-c3c4c(nc(CCc5ccc(F)cc5)c3-c3n[nH]c(=O)o3)C35CC(CN3C4=O)C5)cc12 [Compound 270, (R)-5-(4-(4-((5-fluoro-4-methoxy-2,3-dihydro-1H-inden-1-yl)amino)thieno[2,3-d]pyrimidin-6-yl)-2-(4-fluorophenethyl)-5-oxo-8,9-dihydro-5H,7H-8,9a-methanopyrido[2,3-a]pyrrolizin-3-yl)-1,3,4-oxadiazol-2(3H)-one]	0.148	1.6
COc1c(F)ccc2c1CC[C@H]2Nc1ccnc2cc(-c3c4c(nc(CCc5ccc(F)cc5)c3-c3n[nH]c(=O)o3)C35CC(CN3C4=O)C5)sc12 [Compound 271, (R)-5-(4-(7-((5-fluoro-4-methoxy-2,3-dihydro-1H-inden-1-yl)amino)thieno[3,2-b]pyridin-2-yl)-2-(4-fluorophenethyl)-5-oxo-8,9-dihydro-5H,7H-8,9a-methanopyrido[2,3-a]pyrrolizin-3-yl)-1,3,4-oxadiazol-2(3H)-one]	0.178	3.13
